Read-outs that look alike come from different tables or passages of the source.
Experiments:
HeLa cells = assay: Anti-carcinogenesis-promoter action: inhibition of TPA-promoted phospholipid synthesis (32Pi uptake) in HeLa cells; type: cell-based; conditions: Homo sapiens, read-out: Inhibition (%) of cell phospholipid synthesis promotion by TPA
Procedure: A sample (50 μg/ml) was added to HeLa cells on the second day of cultivation. After 24 hours, TPA (5×10^-8 M) and ^32 Pi (50 μci/culture) were added at the same time. After 4 hours, a phospholipid fraction was extracted to determine the radioactivity of ^32 Pi taken in the fraction.

[1] = tested on: cervical carcinoma cells HeLa; assay: Inhibition against other carcinoma cells: HeLa; type: cell-based, human; conditions: 50 μg/ml
Procedure: (§1) Tested were three types of human carcinoma cells, pancreatic carcinoma cells PANC-1, cervical carcinoma cells HeLa, and neuroblastoma cells GOTO. For each type, about 2×10^5 cells were spread and cultured in a dish having a diameter of 3.5 cm. After one day, compound (1) was added to the culture in a concentration of 50 μg/ml. The number of cells was counted after two days.

[2] = tested on: pancreatic carcinoma cells PANC-1; assay: Inhibition against other carcinoma cells: PANC-1; type: cell-based, human; conditions: PANC-1, 50 μg/ml
Procedure: as §1

in vivo [3] = assay: in vivo; set-up: species or system mice; conditions: mouse, po
[4] = tested on: mouse skin two-stage carcinogenesis; assay: Inhibition of promotion stage of mouse skin in vivo two-stage carcinogenesis (DMBA/TPA); set-up: species or system ICR female mice; conditions: 1 mg applied, twice a week, 1 μg TPA
Procedure: A compound was examined whether it could inhibit the promotion stage of mouse skin in vivo two-stage carcinogenesis. More particularly, a group of 15 ICR female mice was tested by once applying 100 μg of DMBA as an initiator to the skin of each mouse for initiation of carcinogenesis and then applying a test solution (identified below) twice a week. Inhibition of carcinogenesis was examined during the test which continued for 18 weeks in total. The promoter used was TPA.
1 mg of compound (1) applied

in vivo [5] = assay: in vivo; set-up: species or system rats; conditions: rat, po
neuroblastoma cells GOTO = assay: Inhibition against other carcinoma cells: GOTO; type: cell-based, human; conditions: 50 μg/ml
Procedure: as §1

[6] = tested on: gastric carcinoma cells HGC-27; assay: Inhibition against gastric carcinoma cells in varying concentrations; type: cell-based; conditions: two days
Procedure: In a dish having a diameter of 3.5 cm, about 2×10^5 gastric carcinoma cells HGC-27 were spread and cultured. After one day, compound (1) was added to the culture in varying concentrations of 5, 10, 25, 50, and 75 μg/ml. The number of cells was counted after two days. The results are shown in FIG. 6 in which the number of cells is plotted relative to the concentration of compound (1).

[7] = tested on: gastric carcinoma cells HGC-27; assay: Inhibition against gastric carcinoma cells with time; type: cell-based; conditions: 25 μg/ml, number of cells with time
Procedure: In a dish having a diameter of 3.5 cm, about 2×10^4 gastric carcinoma cells HGC-27 were spread and cultured. After one day, compound (1) was added to the culture in a concentration of 25 μg/ml and the number of cells was counted with the lapse of time. The results are shown in FIG. 5 in which the number of cells is plotted relative to the culturing time.

[8] = Solubility of compound (1); type: physicochemical
[9] = sample 50 μg/ml, TPA 5×10^-8 M, HeLa cells
[10] = Homo sapiens, 48 h, two days, read-out: Number of cells, Test group/Control

SMILES: CCCCCc1c(O)c(=O)c(OC)c(C)n1C [Compound (5), 3-hydroxy-1,6-dimethyl-5-methoxy 2-pentyl-4-pyridone]
- inhibition at 50 µg/mL (HeLa cells; [9]): 24.9%

SMILES: O=c1cc(C=Cc2ccc(Cl)cc2)occ1O [Compound (12), 3-hydroxy-6-(p-chlorostyryl)-4H-pyran-4-one]
- inhibition at 50 µg/mL (HeLa cells; [9]): 90%

SMILES: CCCCCc1oc(C)c(OC)c(=O)c1OC [Compound (2), 6-methyl-3,5-dimethoxy-2-pentyl-4H-pyran-4-one]
- inhibition at 50 µg/mL (HeLa cells; [9]): 65.3%

SMILES: Cc1occc(=S)c1O [Compound (9), 3-hydroxy-2-methyl-4H-pyran-4-thione]
- inhibition at 50 µg/mL (HeLa cells; [9]): 0%

SMILES: Cc1occc(=O)c1O [Compound (8), 3-hydroxy-2-methyl 4H-pyran-4-one]
- inhibition at 50 µg/mL (HeLa cells; [9]): 3.1%

SMILES: CCCCCc1c(O)c(=S)c(OC)c(C)n1C [Compound (7), 3-hydroxy-1,6-dimethyl-5-methoxy-2-pentyl 4-pyridinethione]
- inhibition at 50 µg/mL (HeLa cells; [9]): 70.6%

SMILES: CCCCCc1oc(C)c(OC)c(=S)c1O [Compound (3), 3-hydroxy-6-methyl-5-methoxy-2-pentyl-4H-pyran-4-thione]
- inhibition at 50 µg/mL (HeLa cells; [9]): 75%

SMILES: O=c1cc(C=Cc2ccccc2)occ1O [Compound (10), 3-hydroxy-6-styryl-4H-pyran-4-one]
- inhibition at 50 µg/mL (HeLa cells; [9]): 59.3%

SMILES: CCCCCc1oc(C)c(OC)c(=O)c1O [Compound (1), 3-hydroxy-6-methyl-5-methoxy-2-pentyl-4H-pyran-4-one]
- Number of cells (×10^5), Test group ([1]; two days (control 11.20)): 4.70 ×10^5
- activity at 50 µg/mL [1, 10]: 42%
- activity at 50 µg/mL [2, 10]: 27.3%
- Number of cells (×10^5), Test group ([2]; two days (control 8.95)): 2.45 ×10^5
- LD50 (in vivo [3]): ≥ 1000 mg/kg
- inhibition at 50 µg/mL (HeLa cells; [9]): 83%
- average number of carcinomas per mouse ([4]; 18th week (control 2.38)): 0.22
- percentage of mice in which carcinomas developed ([4]; 18th week (control 50%)): 13%
- LD50 (in vivo [5]): ≥ 1000 mg/kg
- Number of cells (×10^5), Test group (neuroblastoma cells GOTO; two days (control 10.95)): 4.85 ×10^5
- activity at 50 µg/mL (neuroblastoma cells GOTO; Homo sapiens, Neuroblastoma cell, 48 h, two days, read-out: Number of cells, Test group/Control): 44.3%
- concentration dependence of inhibitory effect on gastric carcinoma cells HGC-27 ([6]; 5, 10, 25, 50, and 75 μg/ml): dependent on its concentration or dose
- minimal effective concentration ([6]; Homo sapiens, HGC-27, 48 h, 5 to 75 μg/ml, read-out: concentration with significant inhibitory effect on gastric carcinoma cells HGC-27): ≤ 5 µg/mL
- inhibition of propagation of gastric carcinoma cells HGC-27 [7]: fully effective in inhibiting the propagation
- solubility in organic solvents ([8]; methanol, acetone, chloroform, hexane, and ethyl acetate): soluble
- solubility in water ([8]; water): difficultly soluble

SMILES: CCCCCC1=NC(C)=C(OC)C(=O)C1O (stereo not drawn) [Compound (4), 3-hydroxy-6-methyl-5-methoxy 2-pentyl-4-pyridone]
- inhibition at 50 µg/mL (HeLa cells; [9]): 51.2%

SMILES: O=c1cc(CO)occ1O [Compound (13), 5-hydroxy-2-hydroxymethyl-4H-pyran-4-one]
- inhibition at 50 µg/mL (HeLa cells): 1.6%

SMILES: COc1ccc(C=Cc2cc(=O)c(O)co2)cc1 [Compound (11), 3-hydroxy-6-(p-methoxystyryl)-4H-pyran-4-one]
- inhibition at 50 µg/mL (HeLa cells; [9]): 72.2%

— patent US5093505A, “Novel heterocyclic compound, carcinostatic agent, and carcinoma controlling method” (Wakunaga Seiyaku Kabushiki Kaisha, priority 1989, dated 1992)
